Data from ChEMBL document CHEMBL1140215, “Discovery of sodium R-(+)-4-{2-[5-(2-fluoro-3-methoxyphenyl)-3-(2-fluoro-6-[trifluoromethyl]benzyl)-4-methyl-2,6-dioxo-3,6-dihydro-2H-pyrimidin-1-yl]-1-phenylethylamino}butyrate (elagolix), a potent and orally available nonpeptide antagonist of the human gonadotropin-releasing hormone receptor” (J Med Chem, 2008).
pIC50, pKi: −log10 of the molar value. Calls of active or inactive are those of the source. The calls are words filed in the database; no cut-off is given here.

What was measured:
[1] = target: T1, Gonadotropin-releasing hormone receptor (Homo sapiens, UniProt P30968); experiment: Displacement of [125I-Tyr5,DLeu6,NMeLeu7,Pro9-NEt-]GnRH from human GnRH receptor expressed in HEK293 cells by liquid scintillation counting; assay type: cell-based
T1 sequence (P30968 whole entry): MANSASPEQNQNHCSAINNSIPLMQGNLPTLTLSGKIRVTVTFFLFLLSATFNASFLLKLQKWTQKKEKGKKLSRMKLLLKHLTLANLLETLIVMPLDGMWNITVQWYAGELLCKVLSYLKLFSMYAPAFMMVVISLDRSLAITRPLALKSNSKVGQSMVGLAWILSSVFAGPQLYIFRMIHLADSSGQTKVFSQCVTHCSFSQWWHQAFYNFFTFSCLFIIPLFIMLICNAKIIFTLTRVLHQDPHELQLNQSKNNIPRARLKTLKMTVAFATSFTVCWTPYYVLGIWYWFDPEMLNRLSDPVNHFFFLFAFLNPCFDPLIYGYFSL

Cytochrome P450 3A4 = Cytochrome P450 3A4 (Homo sapiens, UniProt P08684); experiment: Inhibition of CYP3A4; assay type: ADME
Chain of Cytochrome P450 3A4 (P08684 whole entry): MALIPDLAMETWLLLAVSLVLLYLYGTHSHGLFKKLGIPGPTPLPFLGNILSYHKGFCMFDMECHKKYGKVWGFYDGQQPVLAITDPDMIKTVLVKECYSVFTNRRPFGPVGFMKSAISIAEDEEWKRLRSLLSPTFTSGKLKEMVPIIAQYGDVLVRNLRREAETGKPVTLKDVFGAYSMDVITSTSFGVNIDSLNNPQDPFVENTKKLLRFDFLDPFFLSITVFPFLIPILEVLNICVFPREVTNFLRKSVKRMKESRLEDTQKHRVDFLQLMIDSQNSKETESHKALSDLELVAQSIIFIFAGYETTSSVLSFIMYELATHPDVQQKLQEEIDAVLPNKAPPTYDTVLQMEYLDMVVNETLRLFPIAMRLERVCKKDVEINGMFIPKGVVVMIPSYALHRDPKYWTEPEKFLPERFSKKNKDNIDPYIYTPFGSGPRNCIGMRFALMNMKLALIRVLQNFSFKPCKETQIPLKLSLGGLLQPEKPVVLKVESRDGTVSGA

[2] = Half life in rat at 3 mg/kg, iv; assay type: ADME, organism-based; set-up: dose 3 mg/kg, route intravenous; settings: in vivo
[3] = Volume of distribution in rat at 3 mg/kg, iv; assay type: ADME, organism-based; set-up: dose 3 mg/kg, route intravenous; settings: in vivo
[4] = Bioavailability in rat at 3 mg/kg, iv; assay type: ADME, organism-based; settings: in vivo
Caco-2 [5] = experiment: Ratio of permeability from apical to basolateral side over basolateral to apical side in human Caco-2 cells; assay type: ADME, cell-based
[6] = Tmax in rat at 3 mg/kg, iv; assay type: ADME, organism-based; set-up: dose 3 mg/kg, route intravenous; settings: in vivo
[7] = Lipophilicity, log D of the compound; assay type: physicochemical; settings: octanol/water
[8] = target: T1, Gonadotropin-releasing hormone receptor; experiment: Antagonist activity at human GnRH receptor expressed in RBL1 cells assessed as inhibition of GnRH-stimulated inositol phosphate production; assay type: functional, cell-based, RBL-1
[9] = Apparent permeability across human Caco-2 cell membrane; assay type: ADME, cell-based
[10] = target: T2, Gonadotropin-releasing hormone receptor (Rattus norvegicus, UniProt P30969); experiment: Displacement of [125I-Tyr5,DLeu6,NMeLeu7,Pro9-NEt-]GnRH from rat GnRH receptor expressed in CHO cells by liquid scintillation counting; assay type: cell-based
T2 sequence (P30969 whole entry): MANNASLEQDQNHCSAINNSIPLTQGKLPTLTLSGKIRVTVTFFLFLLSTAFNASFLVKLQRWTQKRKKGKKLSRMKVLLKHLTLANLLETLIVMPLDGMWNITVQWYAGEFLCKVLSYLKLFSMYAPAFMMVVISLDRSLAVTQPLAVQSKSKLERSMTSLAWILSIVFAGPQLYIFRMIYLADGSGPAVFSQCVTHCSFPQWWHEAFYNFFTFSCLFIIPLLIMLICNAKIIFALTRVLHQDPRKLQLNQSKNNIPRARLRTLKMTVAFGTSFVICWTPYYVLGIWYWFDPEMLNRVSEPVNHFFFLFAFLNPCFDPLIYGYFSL

Rattus norvegicus = experiment: (§1) AUC in rat at 3 mg/kg, iv; assay type: ADME, organism-based, Plasma; set-up: dose 3 mg/kg, route intravenous; settings: in vivo
[11] = Cmax in rat at 3 mg/kg, iv; assay type: ADME, organism-based; set-up: dose 3 mg/kg, route intravenous; settings: in vivo
[12] = Cmax in rat at 10 mg/kg, iv and 10 mg/kg, po; assay type: ADME, organism-based; settings: in vivo
[13] = Half life in rat at 10 mg/kg, iv and 10 mg/kg, po; assay type: ADME, organism-based; settings: in vivo
[14] = Plasma clearance in rat at 10 mg/kg, iv and 10 mg/kg, po; assay type: ADME, organism-based
Cynomolgus monkey [15] = experiment: Suppression of circulating plasma LH levels in cynomolgus monkey at 30 mg/kg, po after 4 to 8 hrs; assay type: functional, Macaca fascicularis
[16] = Tmax in rat at 10 mg/kg, iv and 10 mg/kg, po; assay type: ADME, organism-based; settings: in vivo
[17] = Volume of distribution in rat at 10 mg/kg, iv and 10 mg/kg, po; assay type: ADME, organism-based; settings: in vivo
[18] = Oral bioavailability in rat at 10 mg/kg, iv and 10 mg/kg, po; assay type: ADME, organism-based; settings: in vivo
[19] = AUC in rat at 10 mg/kg, iv and 10 mg/kg, po; assay type: ADME, organism-based; settings: plasma
[20] = Plasma clearance in rat at 3 mg/kg, iv; assay type: ADME, organism-based; set-up: dose 3 mg/kg, route intravenous
[21] = as §1; assay type: ADME, organism-based, Plasma; set-up: dose 3 mg/kg, route intravenous; settings: plasma
Caco-2 [22] = experiment: Ratio of permeability from apical to basolateral side over basolateral to apical side in human Caco-2 cells at 1 mM; assay type: ADME, cell-based; settings: caco-2, 1000 µM
[23] = AUC in Beagle dog at 50 mg/kg, po; assay type: ADME, organism-based, Canis lupus familiaris; set-up: dose 50 mg/kg, route oral; settings: plasma
[24] = Plasma clearance in rhesus monkey; assay type: ADME, organism-based, Macaca mulatta
[25] = Volume of distribution in mouse; assay type: ADME, organism-based; settings: in vivo
[26] = Cmax in mouse; assay type: ADME, organism-based; settings: in vivo
[27] = Cmax in Beagle dog at 50 mg/kg, po; assay type: ADME, organism-based, Canis lupus familiaris; set-up: dose 50 mg/kg, route oral; settings: in vivo
[28] = Plasma clearance in Beagle dog at 50 mg/kg, po; assay type: ADME, organism-based, Canis lupus familiaris; set-up: dose 50 mg/kg, route oral
[29] = Plasma clearance in mouse; assay type: ADME, organism-based
[30] = Volume of distribution in rhesus monkey; assay type: ADME, organism-based, Macaca mulatta; settings: in vivo
Mast cell = experiment: Induction of histamine release in rat peritoneal mast cells; assay type: functional, cell-based
[31] = Half life in rhesus monkey; assay type: ADME, organism-based, Macaca mulatta; settings: in vivo
Canis familiaris = experiment: Volume of distribution in Beagle dog at 50 mg/kg, po; assay type: ADME, organism-based, Canis lupus familiaris; set-up: dose 50 mg/kg, route oral; settings: in vivo
[32] = Oral bioavailability in mouse; assay type: ADME, organism-based; settings: in vivo
[33] = Half life in Beagle dog at 50 mg/kg, po; assay type: ADME, organism-based, Canis lupus familiaris; set-up: dose 50 mg/kg, route oral; settings: in vivo
[34] = Oral bioavailability in rhesus monkey; assay type: ADME, organism-based, Macaca mulatta; settings: in vivo
[35] = Tmax in rhesus monkey; assay type: ADME, organism-based, Macaca mulatta; settings: in vivo
[36] = Half life in mouse; assay type: ADME, organism-based; settings: in vivo
Cynomolgus monkey [37] = experiment: Suppression of circulating plasma LH levels in cynomolgus monkey at 30 mg/kg, po after 8 hrs; assay type: functional, Macaca fascicularis
[38] = Tmax in mouse; assay type: ADME, organism-based; settings: in vivo
[39] = Tmax in Beagle dog at 50 mg/kg, po; assay type: ADME, organism-based, Canis lupus familiaris; set-up: dose 50 mg/kg, route oral; settings: in vivo
[40] = Cmax in rhesus monkey; assay type: ADME, organism-based, Macaca mulatta; settings: in vivo
[41] = target: T3, Gonadotropin-releasing hormone receptor (Macaca mulatta, UniProt Q8SPZ1); experiment: Displacement of [125I-Tyr5,DLeu6,NMeLeu7,Pro9-NEt-]GnRH from monkey GnRH receptor expressed in CHO cells by liquid scintillation counting; assay type: cell-based
T3 sequence (Q8SPZ1 whole entry): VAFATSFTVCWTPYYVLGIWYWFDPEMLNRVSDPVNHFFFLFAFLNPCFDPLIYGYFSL

[42] = AUC in mouse; assay type: ADME, organism-based; settings: plasma
[43] = AUC in rhesus monkey; assay type: ADME, organism-based, Macaca mulatta; settings: plasma
[44] = Bioavailability in Beagle dog at 50 mg/kg; assay type: ADME, organism-based, Canis lupus familiaris; settings: in vivo

SMILES: COC(=O)CCCN[C@@H](Cn1c(=O)c(-c2cccc(OC)c2F)c(C)n(Cc2c(F)cccc2C(F)(F)F)c1=O)c1ccccc1
- pKi [1]: 8.38
- pIC50 (Cytochrome P450 3A4): 6.36

SMILES: COc1cccc(-c2c(C)n(Cc3c(F)cccc3F)c(=O)n(C[C@H](NCCCC(=O)O)c3ccccc3)c2=O)c1F
- half-life [2]: 4.5 h
- Vd [3]: 8.5 L/kg
- bioavailability [4]: 1.1%
- Ratio (Caco-2 [5]): 51
- Tmax [6]: 0.8 h
- pKi [1]: 8.68
- pIC50 (Cytochrome P450 3A4): 3.87
- logD [7]: 0.2
- pIC50 [8]: 7.57
- Papp [9]: 0.4 ×10⁻⁶ cm/s
- pKi [10]: < 5.00
- AUC (Rattus norvegicus): 81 ng·h/mL
- Cmax [11]: 25 ng/mL

SMILES: COc1cccc(-c2c(C)n(Cc3c(F)cccc3Cl)c(=O)n(C[C@H](NCCCC(=O)O)c3ccccc3)c2=O)c1F
- pKi [1]: 8.96
- pIC50 (Cytochrome P450 3A4): 4.96
- pIC50 [8]: 8.49

SMILES: COc1cccc(-c2c(C)n(Cc3c(F)cccc3F)c(=O)n(C[C@H](N)c3ccccc3)c2=O)c1F
- Cmax [12]: 24.2 ng/mL
- half-life [13]: 1.3 h
- pIC50 (Cytochrome P450 3A4): 6.15
- logD [7]: 1.8
- Papp [9]: 17.6 ×10⁻⁶ cm/s
- clearance [14]: 64.7 mL/min/kg
- Activity (Cynomolgus monkey [15]): 50%
- Tmax [16]: 1 h
- Vd [17]: 7.1 L/kg
- bioavailability [18]: 3.5%
- AUC [19]: 106 ng·h/mL

SMILES: COc1cccc(-c2c(C)n(Cc3c(F)cccc3C(F)(F)F)c(=O)n(C[C@H](N)c3ccccc3)c2=O)c1F
- Cmax [12]: 15 ng/mL
- pIC50 (Cytochrome P450 3A4): 6.64
- pIC50 [8]: 9.30
- Tmax [16]: 1.2 h
- pKi [10]: 5.92
- AUC [19]: 46 ng·h/mL

SMILES: COc1cccc(-c2c(C)n(Cc3c(F)cccc3C(F)(F)F)c(=O)n(C[C@H](NCCC(=O)O)c3ccccc3)c2=O)c1F
- pKi [1]: 7.92
- pIC50 (Cytochrome P450 3A4): 4.16

SMILES: COc1cccc(-c2c(C)n(Cc3c(F)cccc3C(F)(F)F)c(=O)n(C[C@H](NCCCCC(=O)O)c3ccccc3)c2=O)c1F
- pKi [1]: 8.12
- pIC50 (Cytochrome P450 3A4): 4.54

SMILES: COc1cccc(-c2c(C)n(Cc3c(F)cccc3C(F)(F)F)c(=O)n(C[C@H](NCC(=O)O)c3ccccc3)c2=O)c1F
- pKi [1]: 7.15

SMILES: COc1cccc(-c2c(C)n(Cc3c(F)cccc3C(F)(F)F)c(=O)n(C[C@@H](c3ccccc3)N(C)CCCC(=O)O)c2=O)c1F
- half-life [2]: 2.6 h
- Vd [3]: 3.2 L/kg
- bioavailability [4]: 3.7%
- Ratio (Caco-2 [5]): 4
- Tmax [6]: 0.25 h
- pKi [1]: 8.43
- pIC50 (Cytochrome P450 3A4): 4.16
- Papp [9]: 7.5 ×10⁻⁶ cm/s
- clearance [20]: 26.4 mL/min/kg
- AUC [21]: 385 ng·h/mL
- Cmax [11]: 592 ng/mL

SMILES: COc1cccc(-c2c(C)n(Cc3c(F)cccc3C(F)(F)F)c(=O)n(C[C@H](NCCCC(=O)[O-])c3ccccc3)c2=O)c1F.[Na+] [ELAGOLIX SODIUM]
- Ratio (Caco-2 [22]): 1.3
- AUC [23]: 80700 ng·h/mL
- half-life [2]: 0.9 h
- Vd [3]: 2.6 L/kg
- clearance [24]: 25.7 mL/min/kg
- bioavailability [4]: 5.8%
- Vd [25]: 1.4 L/kg
- Cmax [26]: 741 ng/mL
- Ratio (Caco-2 [5]): 9.2
- Cmax [27]: 13900 ng/mL
- Tmax [6]: 0.25 h
- CL/F [28]: 14.5 mL/min/kg
- clearance [29]: 50 mL/min/kg
- Vd [30]: 2.5 L/kg
- Activity (Mast cell): inactive
- pKi [1]: 9.05
- half-life [31]: 1.1 h
- Vd (Canis familiaris): 0.92 L/kg
- bioavailability [32]: 10%
- pIC50 (Cytochrome P450 3A4): 4.25
- half-life [33]: 2.8 h
- bioavailability [34]: 11%
- Tmax [35]: 0.69 h
- logD [7]: 2
- pIC50 [8]: 8.82
- Papp [9]: 2.8 ×10⁻⁶ cm/s
- half-life [36]: 0.3 h
- Activity (Cynomolgus monkey [37]): 75%
- Tmax [38]: 0.25 h
- Tmax [39]: 2 h
- clearance [20]: 33.3 mL/min/kg
- Cmax [40]: 518 ng/mL
- pKi [41]: 8.48
- pKi [10]: 5.36
- AUC [42]: 326 ng·h/mL
- AUC [43]: 699 ng·h/mL
- AUC [21]: 290 ng·h/mL
- bioavailability [44]: 100%
- Cmax [11]: 338 ng/mL
